Here are results for 1 compound from US4897391A, “Tricyclic anti-allergy, antiinflammatory and anti-hyperproliferative compounds” (Schering Corporation, priority 1988, dated 1990).

Test [1] deals with Peptidoleukotriene Release in Guinea Pig Lung. Briefly: Peptidoleukotriene Release Inhibition in Lung Assay. It is filed as cell-based. The note with it: Cavia porcellus; final concentration of 50 μm (so in the source); ovalbumin challenge, sensitized guinea pig lung. The text has this:
The anti-allergy method of this invention is identified by tests that measure inhibition of leukotriene release in sensitized guinea pigs by compounds of the invention. This procedure is as follows.
First, kill sensitized guinea pigs by a blow to the head, remove the lungs and clean them of visible connective tissue, trachea and large blood vessels. Slice the lungs from individual animals into fragments approximately 1 mm in thickness using a McIlwain tissue chopper and wash them with oxygenated Tyrode's buffer. Transfer weighed aliquots (approximately 400 mg wet weight) of lung into vials containing 2 ml of fresh Tyrode's solution (containing 10 mM cysteine) and incubate in the presence or absence of test compound for 12 minutes at 37° C., challenge the tissues with 20 μg ovalbumin/ml (final concentration) and incubate for 15 minutes. To measure leukotriene release, extract an aliquot of supernatant fluid with 4 volumes of 100% ethanol. After removal of the precipitated protein, dry the clear fluid under a stream of N2 gas. Measure the leukotriene content by a radioimmunoassay using [^3 H]LTC4 (leukotriene C4) and antiserum obtained from New England Nuclear. […] Calculate percent inhibition of leukotriene release by comparing for each lung the release in the presence of the test compound to that in the absence of test compound.

The target of the next test is T1, 5-lipoxygenase (Mus musculus, UniProt P48999).
T1 construct: Preincubate MC-9 cells (0.39 ml at 7.5×10^6 cells/ml) without or with test compound; endogenous in cells; host or cells: MC-9 murine mast cell clone (interleukin-3-dependent)
T1 sequence (P48999 1-674): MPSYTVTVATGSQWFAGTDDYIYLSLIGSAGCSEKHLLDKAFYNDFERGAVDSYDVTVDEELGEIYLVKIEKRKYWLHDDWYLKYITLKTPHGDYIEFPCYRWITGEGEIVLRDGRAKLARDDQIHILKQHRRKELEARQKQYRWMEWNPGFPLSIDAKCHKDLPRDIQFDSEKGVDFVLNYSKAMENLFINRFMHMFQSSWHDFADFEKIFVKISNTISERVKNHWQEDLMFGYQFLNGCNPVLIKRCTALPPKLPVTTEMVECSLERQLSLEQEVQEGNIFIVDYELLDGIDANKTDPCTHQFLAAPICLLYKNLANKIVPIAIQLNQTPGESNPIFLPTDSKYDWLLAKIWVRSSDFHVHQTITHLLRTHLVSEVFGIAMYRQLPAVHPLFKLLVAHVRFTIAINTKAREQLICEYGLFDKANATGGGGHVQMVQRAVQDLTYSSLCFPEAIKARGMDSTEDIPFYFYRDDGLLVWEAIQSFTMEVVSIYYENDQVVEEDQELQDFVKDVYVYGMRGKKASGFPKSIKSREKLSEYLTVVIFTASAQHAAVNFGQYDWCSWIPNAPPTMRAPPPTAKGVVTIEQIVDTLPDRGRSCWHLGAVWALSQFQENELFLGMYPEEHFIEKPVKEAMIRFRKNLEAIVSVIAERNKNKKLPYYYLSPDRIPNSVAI
Put plainly: 5-Lipoxygenase Assay (MC-9 mast cells, 5-HETE and LTC4 production). The note with it: MC9, 50 μM dose; MC-9 cells; read-out: % Inhibition 5-HETE. It is filed as cell-based, murine. As for the experimental part:
Preincubate MC-9 cells (0.39 ml at 7.5×10^6 cells/ml) without or with test compound dissolved in dimethylsulfoxide (DMSO) vehicle (to a final volume 1 μl) for 4 minutes then incubate for 5 minutes with [^14 C]arachidonic acid (Amersham, 59 Ci/mole) at a 9 μM final concentration, and A23187 (Calbiochem) at a 1 μM final concentration in 10 μl of water:ethanol (9:1). Stop the reaction by addition of methanol (0.4 ml), and remove cellular debris by centrifugation. Run aliquots (250 μl) of the incubations on a Waters two-pump HPLC system fitted with a Waters radial compression column (C18, 10 micron, 8×100 mm, micro-Bondapak) and C18 "Guard Pak". Initially elute the column at 3 ml/min with water:methanol:acetic acid (67:33:0.08) containing 1 mM EDTA adjusted to pH 6.0 with ammonium hydroxide (Pump A). At 4 minutes, establish a linear gradient to reach 100% methanol (Pump B) at 9 minutes. Between 13 and 14 minutes, exchange for the initial eluting solvent and by 19 minutes the column will be reequilibrated for the next sample. Analyze the effluent by a continuous flow radioactivity monitor (model ROMONA-D) interfaced with a Hewlett Packard Lab Automation System for quantitation of radioactive products. […] Doses in table 2 are 50 μM unless otherwise noted.

Test [2] has as its system Reversed Passive Arthus Reaction (paw swelling). Put plainly: Reversed Passive Arthus Reaction (RPAR) Assay. It is filed as in vivo, Male Lewis inbred albino rats. Conditions: 50 mg/kg p.o.; rat. From the text:
Male Lewis inbred albino rats weighing 180-220 grams obtained from Charles River Breeding Laboratories are used in these experiments. House the rats 3 animals/cage and allow food and water ad libitum. Number the animals 1 to 3 in each cage and color mark them for identification purposes.
Prepare all reagents and drugs just prior to the study. Without shaking, solubilize crystallized and lyophilized bovine serum albumin (BSA), obtained from Sigma Chemical Company, in cold sterile pyrogen-free saline (10 mg/ml PFS). Suspend lyophilized anti-bovine serum albumin (IgG Fraction), obtained from Cappel Laboratories, in sterile distilled water and dilute with cold pyrogen-free saline (PFS) just prior to use. The final concentration of anti-bovine serum albumin will be 0.5 mg/ml of PFS. Both BSA and anti-BSA solutions should be iced during use. Suspend or solubilize drugs in an aqueous solution of methyl cellulose (MC) with a homogenizer just prior to administration.
Dose groups of animals (6/group) with drug in methyl cellulose (MC) by gastric lavage one hour prior to sensitization with BSA. Give controls MC alone and include drug-standard in each assay for verification purposes. Prepare drugs so as to provide a dose for a 200 gram animal which is equivalent to the mg/kg dose for the experiment. Thus each rat receives an oral dose in a volume of approximately 2.0 ml. […]

With `COc1cc(OC)c2c(C)c3n(c(=O)c2c1)CCCC3` [Compound E, 8,10-bis(methoxy)-1,2,3,4-tetrahydro-11-methyl-6H-benzo[b]quinolizin-6-one], the inhibition (usually the percentage by which the read-out fell short of the control) at 50 µM in test [1] stood at 33%; on 5-lipoxygenase, 8%. The “inhibition of paw swelling” value in test [2] came out at 59%.
